Assay results taken from PubChem BioAssay AID1918930 (Molecular Pharmacology Branch, DTP, NCI, 2023).

Tested on: 233499-124-R-J3-PDC complex spheroid viability, % test/control
Experiment: Anticancer human tumor 233499-124-R-J3-PDC patient-derived colon adenocarcinoma cell line growth inhibition
Conditions: for IC50: curve of first compound; for viability, T/C: stronger effect = lower value; active means viability on the fitted dose curve at most 10% of control; inactive means the rest
Procedure, shortened: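 Multicellular complex spheroids of tumor cells with human endothelial cells (HUVEC) and mesenchymal stem cells; the LSD1 inhibitor iadademstat was combined with standard-of-care or investigational agents. Top concentration at or near clinical Cmax, half-log dilutions; final DMSO ≤0.25%.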
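Further: spheroids exposed to agents for one week before readout.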

CC1(C)CCC(CN2CCN(c3ccc(C(=O)NS(=O)(=O)c4ccc(NCC5CCOCC5)c([N+](=O)[O-])c4)c(Oc4cnc5[nH]ccc5c4)c3)CC2)=C(c2ccc(Cl)cc2)C1 + NC1CCC(NC2CC2c2ccccc2)CC1
7.55 µM: IC50 (second compound 3.16 µM)
9.01 µM: IC50 (second compound 1 µM)
6.46 µM: IC50 (second compound 0.316 µM)
7.56 µM: IC50 (second compound 0.1 µM)
7.29 µM: IC50 (second compound 10 µM)
inactive: viability, T/C (second compound 0.1 µM, first compound 0.0316 µM) 119% | viability, T/C (second compound 0.1 µM, first compound 0.1 µM) 127% | viability, T/C (second compound 0.1 µM, first compound 0.316 µM) 132% | viability, T/C (second compound 0.1 µM, first compound 1 µM) 116% | viability, T/C (second compound 0.1 µM, first compound 3.16 µM) 143% | viability, T/C (second compound 0.1 µM, first compound 10 µM) 25.2% | viability, T/C (second compound 0.316 µM, first compound 0.0316 µM) 111% | viability, T/C (second compound 0.316 µM, first compound 0.1 µM) 109% | viability, T/C (second compound 0.316 µM, first compound 0.316 µM) 114% | viability, T/C (second compound 0.316 µM, first compound 1 µM) 105% | viability, T/C (second compound 0.316 µM, first compound 3.16 µM) 132% | viability, T/C (second compound 0.316 µM, first compound 10 µM) 10.5% | viability, T/C (second compound 1 µM, first compound 0.0316 µM) 95.7% | viability, T/C (second compound 1 µM, first compound 0.1 µM) 91.2% | viability, T/C (second compound 1 µM, first compound 0.316 µM) 97.8% | viability, T/C (second compound 1 µM, first compound 1 µM) 104% | viability, T/C (second compound 1 µM, first compound 3.16 µM) 118% | viability, T/C (second compound 1 µM, first compound 10 µM) 44.8% | viability, T/C (second compound 3.16 µM, first compound 0.0316 µM) 88.8% | viability, T/C (second compound 3.16 µM, first compound 0.1 µM) 99.8% | viability, T/C (second compound 3.16 µM, first compound 0.316 µM) 83% | viability, T/C (second compound 3.16 µM, first compound 1 µM) 98.9% | viability, T/C (second compound 3.16 µM, first compound 3.16 µM) 96.6% | viability, T/C (second compound 3.16 µM, first compound 10 µM) 36% | viability, T/C (second compound 10 µM, first compound 0.0316 µM) 87.4% | viability, T/C (second compound 10 µM, first compound 0.1 µM) 86.5% | viability, T/C (second compound 10 µM, first compound 0.316 µM) 85.2% | viability, T/C (second compound 10 µM, first compound 1 µM) 93.1% | viability, T/C (second compound 10 µM, first compound 3.16 µM) 101% | viability, T/C (second compound 10 µM, first compound 10 µM) 34.5%
